Measurements published in article PMC5786798, “Discovery of New Inhibitors of Toxoplasma gondii via the Pathogen Box” (Antimicrobial Agents and Chemotherapy, 2018).

Experiments:
[1] = Cytotoxicity evaluation on Vero cell cultures (UptiBlue viable cell counting assay, 72 h); format: cell-based; settings: African green monkey, Vero cells, means from four values from two experiments
Description: The in vitro cytotoxicity of compounds was evaluated on Vero cell cultures by using 96-well plates, since these cells were used for T. gondii growth in our model. […] After 72 h, cytotoxicity was evaluated by using the UptiBlue viable cell counting assay (Interchim). […] Spectrophotometric measurements (FLUOstar Omega microplate reader; BMG Labtech, France) were made at 570 nm and corrected at 600 nm, and blank readings were made on the mean value of the seven negative-control wells. A sample was considered toxic when the cell viability was lower than 80%. […] For a visual control, the last well of each condition was fixed with cold methanol and stained with kit RAL 555 (RAL Diagnostics, France) and examined microscopically (AxioVert 200M; Zeiss, France) at a magnification of ×20 instead of being tested with UptiBlue.

Toxoplasma gondii = settings: effect against Toxoplasma; literature value, no reference given; cited from earlier work
[2] = test system: T. gondii tachyzoites (RH strain, type I); experiment: Determination of IC50s, in vitro chemosensitivity of T. gondii (ELISA, 72 h); settings: for IC50: 72 h, T. gondii RH tachyzoites on Vero cells, ELISA, 2-fold dilution series 2 to 0.015 μM, means from four values from two experiments; for selective antitoxoplasmic activity according to hit criteria: hit criteria IC50 <2 μM and SI >4

With `O=C(Nc1nc(-c2ccccn2)cs1)c1cncn1-c1ccccc1` [MMV676512] the CC50 at 72 h [1] was 3.61 µM.
For `O=C(Nc1ccc(C(F)(F)F)c(C(F)(F)F)c1)c1cc(Cl)ccc1O` [MMV687807], the CC50 at 72 h [1] was 1.69 µM.
For `CC(C)(C)[C@H]1CC[C@H](CC2=C(O)C(=O)c3ccccc3C2=O)CC1` [MMV689480, buparvaquone, reference compound], the CC50 at 72 h [1] was 8.66 µM.
In the case of `OC(Cn1cncn1)(Cn1cncn1)c1ccc(F)cc1F` [fluconazole], the IC50 (Toxoplasma gondii) is listed as 3 µM.
`CCc1nc(N)nc(N)c1-c1ccc(Cl)cc1` [PYR, pyrimethamine, reference compound] showed a CC50 at 72 h [1] of 10.5 µM and an IC50 ([2]; Toxoplasma gondii, Vero) of 1.17 ± 0.076 µM.
`COc1ccc(OC)c(NCc2ccc3nc(N)nc(N)c3c2Cl)c1` [MMV675968] showed a CC50 at 72 h [1] of 5.5 µM.
In the case of `CN1CCC(c2cc(-c3ccncc3)c(-c3ccc(F)cc3)[nH]2)CC1` [MMV688703], the “selective antitoxoplasmic activity according to hit criteria” value [2] is reported as “not selective” and the “selective antitoxoplasmic activity according to hit criteria” value ([2]; listed as MV688703) is reported as “did not show the criteria for inclusion as an active compound”.
`c1ccc(-c2nc(NC3CCCCC3)cc(C3CC3)n2)nc1` [MMV021013] showed a CC50 at 72 h [1] of 15.9 µM, an IC50 [2] of 1.12 ± 0.035 µM and an IC50 ([2]; Toxoplasma gondii, Vero) of less than 2 µM.
In the case of `O=C(Nc1ccc(N2CCNCC2)cc1)c1ccn2ncc(-c3cccc(Cl)c3)c2n1` [MMV022478], the CC50 at 72 h [1] is reported as 2.23 µM.
With `CNC(=O)c1nn(C)c2c1C(C)(C)Cc1cnc(Nc3ccc(N4CCN(C)CC4)cc3)nc1-2` [MMV676602] the CC50 at 72 h [1] was 3.3 µM.
In the case of `CCC(C)n1ncn(-c2ccc(N3CCN(c4ccc(OCC5COC(Cn6cncn6)(c6ccc(Cl)cc6Cl)O5)cc4)CC3)cc2)c1=O` (stereo not shown) [itraconazole], the IC50 (Toxoplasma gondii) is listed as 0.5 µM.
In the case of `FC(F)(F)c1cnc(Sc2nnc(-c3ccncc3)o2)c(Cl)c1` [MMV011765], the CC50 at 72 h [1] is reported as 9.48 µM.
